From the METLIN SMRT retention time set (Domingo-Almenara et al. 2019)

assay: gradient 5% acetonitrile 3 min, to 50% in 2 min, to 85% in 15 min, held 3 min, 100 µL/min; conditions: column: Zorbax Extend-C18 2.1 x 50 mm; eluents: water / acetonitrile, 0.1% formic acid
Summary of the method: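 Each retention time is based on an adduct peak selected computationally and verified by manual inspection. Measurements used HPLC–quadrupole time-of-flight mass spectrometry in positive and negative ionization mode on mixtures of ~100 pure standards. Chromatography ran on a Zorbax Extend-C18 column (2.1 × 50 mm, 1.8 μm) at 100 μL/min with water and acetonitrile, each containing 0.1% formic acid, and dead and dwell volumes of 40 μL and 900 μL.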

Row | Compound | RP-LC retention time
1 | CNC(=O)C(=O)NCC1CCN(S(C)(=O)=O)CC1 | 541 s
2 | COC(=O)c1ccc(NC(=O)C2CCCN(c3ncnc4c3nc3n4CCCCC3)C2)cc1 (configuration not stated) | 808 s
3 | Cc1cc(C)cc(NC(=O)N2CC(CN(C)C)C3(CCCCC3)C2)c1 (configuration not stated) | 695 s
4 | Cc1ccc(N2C(=O)CC(Nc3ccc(N4CCOCC4)cc3)C2=O)c(Br)c1 (configuration not stated) | 618 s
5 | Cc1cc(NC(=O)c2[nH]c(C)c(S(=O)(=O)N3CCCCC3)c2C)ccc1Br | 1110 s
6 | Cc1nn(-c2ccc(Cl)cc2)c(C)c1S(=O)(=O)N1CCC(C(=O)N2CCCC2)CC1 | 868 s
7 | OC[C@@H]1CN(C2CCCC2)C[C@H]1c1nc(-c2cccnc2)no1 | 553 s
8 | COCCCNC(=O)N1CCCCCC1c1cccc(C)c1 (configuration not stated) | 910 s
9 | O=S(=O)(c1ccc2nc(N3CCN(c4ccccc4F)CC3)ccc2c1)N1CCOCC1 | 939 s
10 | CCN1CCN(CCCNC(=O)CCCn2c3ccccc3c3cnn(C)c(=O)c32)CC1 | 576 s
11 | COc1ccc(Cl)cc1C(=O)NCC(c1ccsc1)N1CCCC1 (configuration not stated) | 582 s
12 | COc1ccc(N2CCN(C(=O)c3ccc(=O)n(CCN4CCOCC4)c3)CC2)cc1 | 578 s
13 | Cc1cc(N2CCC(C)CC2)n2nc(-c3ccc(Cl)cc3)nc2n1 | 1170 s
14 | CC(C)NC(=O)Cc1nnc2cc(-c3nc(C4CC4)no3)ccn12 | 777 s
15 | Cn1c(N2CCCN(C(=O)COc3ccc(Cl)cc3)CC2)cc(=O)n(C)c1=O | 658 s
16 | CCc1nnc(C2CCN(C(=O)c3cc(C)on3)CC2)s1 | 624 s

Other lines, results leading:

Row | RP-LC retention time | Compound
17 | 1320 s | Cc1ccc(-c2csc(Cc3nc(-c4ccc(C)cc4)no3)n2)cc1
18 | 1030 s | COC(=O)c1cc(C)sc1NC(=O)CC1Sc2ccc(C(F)(F)F)cc2NC1=O (configuration not stated)
19 | 859 s | COC(=O)c1[nH]c(C)c(C(=O)C(C)N(CC(C)C)C(=O)c2ccc(OC)cc2)c1C (configuration not stated)
20 | 813 s | O=C(NCc1ccc(F)cc1)N1CCC(c2noc(-c3ccccn3)n2)C1 (configuration not stated)
21 | 673 s | COc1ccc(CNC(=O)c2cnc(OC)nc2)cc1
22 | 963 s | CCOc1ccccc1NC(=O)NCc1nc(-c2ccccc2)oc1C
23 | 1290 s | CCCS(=O)(=O)N1CCC2(CC1)CN(c1cccc(F)c1)C2c1ccccc1 (configuration not stated)
24 | 1190 s | O=C(CSc1cc(N2CCN(c3ccccc3F)CC2)ncn1)Nc1ccccc1F
25 | 682 s | CCn1cc(-c2ccncc2)cc1C(=O)NCc1ccccc1Br
26 | 690 s | O=C(CSCc1cnn(-c2ccccc2)c1-n1cccc1)N1CCN(c2ccccn2)CC1
27 | 835 s | Cc1ccc(C2CCCN2C(=O)c2nc3nc(C)cc(C(F)F)n3n2)cc1 (configuration not stated)
28 | 862 s | Cc1ccc(C)c(CNC(=O)CN2CCN(Cc3ccc(F)cc3)C2=O)c1
29 | 903 s | COc1cc(O)cc(O)c1C(=O)/C=C/c1ccccc1
30 | 791 s | CCCc1nc(NCc2ccc3c(c2)OCO3)ncc1C(=O)O
31 | 1100 s | CCN1C(=O)C2(CCN(S(=O)(=O)c3ccc(Cl)c(C)c3)CC2)c2ccccc21
32 | 1040 s | CC(C)Oc1ccc(-c2noc(CN3N=NC4C(=O)N(c5cccc(Cl)c5)C(=O)C43)n2)cc1 (configuration not stated)
33 | 998 s | O=C(c1cccnc1)N1CCc2c([nH]c3ccccc23)C1c1ccc(Cl)cc1 (configuration not stated)
34 | 559 s | CCc1nnc2nc(N3CCN(C(=O)c4nccc5ccccc45)CC3)cc(C)n12
35 | 1390 s | COCCCNC(=O)Cn1c(=O)n(-c2ccc(F)cc2)c2ncccc21
36 | 1020 s | Cc1c(C(=O)NCC2CC2)cnn1-c1cc(-c2nc(C(C)C)no2)ccn1
37 | 812 s | CCOC(=O)Cc1ccc(NC(=O)NC2CCN(c3ccc(F)cc3)C2=O)cc1 (configuration not stated)
